pIC50, pKi: −log10 of the molar value. Peptide text beside a SMILES is read from it.
Key:
PGGT I = target: T1, PGGT I (Bos taurus, UniProt P29702+Q5EAD5); test: PGGT assay using GST-CIIL protein and [3H]GGpp; assay type: biochemical, bovine
T1 construct: PGGT purified from bovine brain was a gift of Drs; M. Gelb and K. Yokoyama; tissue gift of Drs; M. Gelb and K. Yokoyama (Univ. of Washington); host or cells: bovine brain
Description: (§1) Farnesyltransferase assay. FTase from S. cerevisiae was purified from yeast cells overexpressing DPR1 and RAM2 as described herein. Rat brain FTase was partially purified by the method described by Reiss et al. PGGT purified from bovine brain was a gift of Drs. M. Gelb and K. Yokoyama (Univ. of Washington). FTase assays were carried out using RAS2CT1 protein and [^3 H]Fpp according to the method described herein except that Tris-HCl(pH8) was used instead of phosphate buffer. PGGT assays were carried out using GST-CIIL protein and [^3 H]GGpp as described herein except that Tris-HCl(pH7.4) was used instead of phosphate buffer. […] Incubation was carried out at 37° C.
FIG. 6B compares the effect of UCF1-C on PGGT I and PFT.

yeast PFT = target: T2, yeast PFT (Saccharomyces cerevisiae, UniProt P22007+P29703); test: Farnesyltransferase assay using RAS2CT1 protein and [3H]Fpp, without dithiothreitol; assay type: biochemical, S. cerevisiae
T2 construct: FTase was purified from SP1 cells carrying plasmids pBH28 and YEpDPR1 as described herein; made in house; host or cells: Saccharomyces cerevisiae SP1 carrying YEpDPR1 and pBH28
T2 sequence (P22007 1-431): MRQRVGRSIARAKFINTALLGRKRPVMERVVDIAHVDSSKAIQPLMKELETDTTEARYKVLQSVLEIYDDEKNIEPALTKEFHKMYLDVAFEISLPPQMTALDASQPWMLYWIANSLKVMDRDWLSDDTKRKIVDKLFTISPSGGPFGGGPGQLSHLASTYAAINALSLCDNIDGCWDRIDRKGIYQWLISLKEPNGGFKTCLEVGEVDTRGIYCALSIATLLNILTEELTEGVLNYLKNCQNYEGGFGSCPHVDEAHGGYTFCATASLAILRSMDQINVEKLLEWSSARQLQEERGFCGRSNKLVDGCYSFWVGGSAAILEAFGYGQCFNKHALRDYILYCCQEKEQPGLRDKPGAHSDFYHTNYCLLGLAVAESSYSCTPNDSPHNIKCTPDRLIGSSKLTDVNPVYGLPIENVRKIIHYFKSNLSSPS
T2 sequence (P29703 1-316): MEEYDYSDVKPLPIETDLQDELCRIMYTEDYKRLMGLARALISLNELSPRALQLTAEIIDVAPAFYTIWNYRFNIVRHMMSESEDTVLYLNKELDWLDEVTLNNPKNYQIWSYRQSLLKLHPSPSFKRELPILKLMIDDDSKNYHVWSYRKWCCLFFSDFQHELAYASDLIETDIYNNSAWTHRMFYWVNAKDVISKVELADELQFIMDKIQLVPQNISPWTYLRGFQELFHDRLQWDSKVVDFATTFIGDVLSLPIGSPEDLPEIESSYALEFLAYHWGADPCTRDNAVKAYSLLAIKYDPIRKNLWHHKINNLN
Description: as §1
Inhibition of Farnesyltransferase.
To investigate the mechanism of inhibition by UCF1-C, kinetic analyses were carried out. […] The same Km value was observed when the Linewaver-Burke plot was analyzed under different ras and UCF1-C concentrations (.quadrature.=0 μM, .tangle-solidup.=10 μM, and .box-solid.=20 μM) in the presence of a constant concentration of Fpp.

yeast FTase = target: T3, yeast FTase (Saccharomyces cerevisiae, UniProt P22007+P29703); test: Prenyltransferase (FTase) assay with [3H]Fpp and GST-CIIS, purified yeast FTase; assay type: biochemical; conditions: for inhibition of FTase activity by salts: 100 mM salt
T3 construct: FTase was purified from SP1 cells carrying plasmids pBH28 and YEpDPR1 as described herein; made in house; host or cells: Saccharomyces cerevisiae SP1 carrying YEpDPR1 and pBH28
T3 sequence (P22007 1-431): T2 sequence (P22007 1-431)
T3 sequence (P29703 1-316): T2 sequence (P29703 1-316)
Description: Prenyltransferase assays were performed essentially as described in Goodman et al., 1990; Finegold et al., 1991. Briefly, the reaction mixture (20 μl) contained 50 mM potassium phosphate, pH 7.4 (or 50 mM Tris/HCl, pH 8.0), 10 mMMgCl2, 5 mM DTT, 5 μM ZnCl2, 0.8-1.12 μM [^3 H] farnesyl pyrophosphate (Fpp) (20 Ci/mmol; New England Nuclear) or [^3 H] geranylgeranyl pyrophosphate (GGpp) (20 Ci/mmol; New England Nuclear, Boston, Mass.), 19 μg of GST-CIIS or 30 μg of GST-CIIL protein and enzymes. Incubation was carried out at 37° C., and the radioactivity incorporated was determined by spotting the reaction mixture onto a filter paper, treating with 10% trichloroacetic acid, followed by ethanol and acetone washing.
Reaction mixture (20 μl) for results shown in open squares contained 1.12 μM [^3 H] Fpp, 4.38 ng FTase, 19 μM GST-CIIS, 0.1 mM EDTA and the indicated concentration of MgCl2. Reaction mixtures (20 μl) for results shown in closed diamond contained 0.1 mM ZnCl2 in addition to the above. Incubation was carried out for 10 minutes at 37° C. and radioactivity incorporated was determined as described herein.
Substrate specificity of yeast FTase was investigated by comparing incorporation of Fpp or GGpp into two different substrate proteins, GST-CIIS (.quadrature.) and GST-CIIL (.circle-solid.). […] The reaction mixture (20 μl) contained 1.12 μM [^3 H] Fpp, 20 ng FTase, and the indicated concentrations of either GST-CIIS or GST-CIIL1 protein. Incubations were carried out for 10 minutes at 37° C. and the radioactivity incorporated was measured as described herein.
Dilution of the peptides was made in 10 mM DTT. Incubation was carried out for 10 minutes at 37° C. and the radioactivity incorporated was determined as described herein.

For `CCCC[C@@H](C)/C=C(C)/C=C(\C)C(=O)NC1=C[C@@](O)(/C=C/C=C/C=C/C(=O)NC2=C(O)CCC2=O)[C@@H]2O[C@@H]2C1=O` [UCF1-C], the “PGGT I activity still detectable” value (PGGT I; 1 mM concentration) was “approximately 30%”, the pIC50 (PGGT I; GST-CIIL, [3H]GGpp, Tris-HCl pH 7.4, read-out: IC50 for PGGT I inhibition) was 3.74 and the “mechanism of inhibition with respect to Fpp” value (yeast PFT; Lineweaver-Burk, changes Km for Fpp, not Vmax) was “competitive inhibitor”. The “mechanism of inhibition with respect to ras protein” value (yeast PFT; Lineweaver-Burk, same Km for RAS2, constant Fpp) was “non-competitive inhibitor”, the pIC50 (yeast PFT; RAS2CT1, [3H]Fpp, Tris-HCl pH 8, no dithiothreitol, 37° C.) was 5.30 and the pKi (yeast PFT; secondary plot of slopes against UCF1-C concentration, Fpp varied, constant ras) was 5.92.
For `O=C(O)CN(CCN(CC(=O)O)CC(=O)O)CC(=O)O` [EDTA], the “effect of EDTA addition on FTase activity” value (yeast FTase) was “dramatic inhibition”.
In the case of EHWSYGLRPG [LHRH], the “inhibition of FTase activity by peptide (in words)” value (yeast FTase; control peptides of the same size, unrelated sequences) was “little inhibition”.
For `[Cl-].[K+]` [KCl], the “inhibition of FTase activity by salts” value (yeast FTase) was “Approximately 50%”.
In the case of `[Cl-].[Li+]` [LiCl], the “inhibition of FTase activity by salts” value (yeast FTase) was “Approximately 50%”.
For `CC(C)=CCC/C(C)=C/CC/C(C)=C/COP(=O)(O)OP(=O)(O)O` [Fpp, farnesyl pyrophosphate], the Km (yeast FTase; secondary plots, substrates Fpp and GST-CIIS varied) was 8.1 µM.
For `[Cl-].[Na+]` [NaCl], the “inhibition of FTase activity by salts” value (yeast FTase) was “Approximately 50%”.
Compound `CSCC[C@H](NC(=O)[C@H](CC(C)C)NC(=O)[C@@H](NC(=O)[C@H](CS)NC(=O)[C@H](CS)NC(=O)[C@@H](NC(=O)[C@H](CO)NC(=O)[C@H](CC(N)=O)NC(=O)[C@H](CO)NC(=O)[C@@H](N)CC(N)=O)C(C)C)[C@@H](C)O)C(=O)O` [MG13, NSNSVCCTLM] (H-NSNSVCCTLM-OH) has a pIC50 (yeast FTase) of 5.00.
